Laboratory results taken from patent US11530210B2, “Substituted heteroaromatic pyrazolo-pyridines and their use as GLUN2B receptor modulators” (JANSSEN PHARMACEUTICA NV, priority 2019, dated 2022).
Structures can show the parent of a compound that is named as a salt.

These compounds were tested against T1, human GluN1/GluN2B NMDA receptors (Homo sapiens, UniProt Q13224) (assay: Calcium flux (FLIPR) assay on cloned human NR1/GluN2B ion channels expressed in mammalian cells (standard and HTS variants)). Conditions: cells expressing human GluN1/GluN2B, glutamate and glycine co-agonists.
T1 construct: expressed in transfected cells
T1 sequence (Q13224 27-1484, other chains not shown): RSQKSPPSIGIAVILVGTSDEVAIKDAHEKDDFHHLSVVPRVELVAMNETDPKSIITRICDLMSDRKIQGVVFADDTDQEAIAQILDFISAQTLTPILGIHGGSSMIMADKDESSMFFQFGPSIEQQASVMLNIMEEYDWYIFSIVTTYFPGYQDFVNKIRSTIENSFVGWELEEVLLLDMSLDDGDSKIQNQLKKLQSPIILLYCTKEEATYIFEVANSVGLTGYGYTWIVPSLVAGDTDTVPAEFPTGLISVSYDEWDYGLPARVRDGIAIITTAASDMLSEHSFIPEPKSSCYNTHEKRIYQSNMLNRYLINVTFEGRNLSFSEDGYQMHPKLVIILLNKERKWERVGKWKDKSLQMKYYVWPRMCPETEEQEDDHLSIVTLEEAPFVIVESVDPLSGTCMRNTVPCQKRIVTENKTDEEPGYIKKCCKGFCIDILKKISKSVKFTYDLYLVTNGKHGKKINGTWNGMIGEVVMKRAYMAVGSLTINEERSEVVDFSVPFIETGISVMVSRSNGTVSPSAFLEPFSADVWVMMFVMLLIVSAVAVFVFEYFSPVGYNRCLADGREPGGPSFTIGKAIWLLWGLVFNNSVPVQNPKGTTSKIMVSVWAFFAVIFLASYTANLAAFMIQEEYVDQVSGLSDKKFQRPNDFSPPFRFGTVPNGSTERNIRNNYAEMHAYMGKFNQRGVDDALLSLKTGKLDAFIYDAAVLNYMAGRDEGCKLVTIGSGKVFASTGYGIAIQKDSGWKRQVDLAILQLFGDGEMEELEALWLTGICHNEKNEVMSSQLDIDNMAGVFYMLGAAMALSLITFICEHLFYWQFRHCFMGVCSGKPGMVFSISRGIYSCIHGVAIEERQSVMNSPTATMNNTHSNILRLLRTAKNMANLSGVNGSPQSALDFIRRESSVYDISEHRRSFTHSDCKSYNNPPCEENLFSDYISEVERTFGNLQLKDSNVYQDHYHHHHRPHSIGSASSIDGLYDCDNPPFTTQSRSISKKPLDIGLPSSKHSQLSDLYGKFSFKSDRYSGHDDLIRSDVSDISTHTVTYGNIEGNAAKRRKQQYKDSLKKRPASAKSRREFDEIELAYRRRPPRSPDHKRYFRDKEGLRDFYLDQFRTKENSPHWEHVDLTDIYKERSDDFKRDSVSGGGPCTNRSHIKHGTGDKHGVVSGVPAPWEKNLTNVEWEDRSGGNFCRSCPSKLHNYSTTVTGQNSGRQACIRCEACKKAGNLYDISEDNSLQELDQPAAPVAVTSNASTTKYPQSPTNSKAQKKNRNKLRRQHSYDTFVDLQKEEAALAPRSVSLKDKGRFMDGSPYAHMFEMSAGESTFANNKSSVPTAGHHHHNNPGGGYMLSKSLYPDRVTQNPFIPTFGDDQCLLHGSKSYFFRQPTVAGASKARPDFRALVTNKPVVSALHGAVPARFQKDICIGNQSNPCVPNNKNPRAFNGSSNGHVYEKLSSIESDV
Assay type: cell-based
Outline: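 Calcium influx read by FLIPR after co-agonist addition (glycine 10 μM, glutamate near EC40) following 5 min compound preincubation, with signal normalized to control wells.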

Row | Structure (SMILES) | IC50
1 | CC(F)(F)c1cccc(-c2cnc3cnn(Cc4cncc(F)c4)c3c2)c1 [Example 161, 6-[3-(1,1-Difluoroethyl)phenyl]-1-[(5-fluoro-3-pyridyl)methyl]pyrazolo[4,3-b]pyridine] | 0.04 µM
2 | FC(F)(F)c1cccc(-c2cnc3cnn(Cc4ccccn4)c3c2)c1 [Example 162, 1-(2-Pyridylmethyl)-6-[3-(trifluoromethyl)phenyl]pyrazolo[4,3-b]pyridine] | 0.93 µM
3 | FC(F)(F)c1cccc(-c2cnc3cnn(Cc4cccnc4)c3c2)c1 [Example 163, 1-(3-Pyridylmethyl)-6-[3-(trifluoromethyl)phenyl]pyrazolo[4,3-b]pyridine hydrochloride salt] | 0.09 µM
4 | FC(F)(F)c1cccc(-c2cnc3cnn(Cc4ccncc4)c3c2)c1 [Example 164, 1-(4-Pyridylmethyl)-6-[3-(trifluoromethyl)phenyl]pyrazolo[4,3-b]pyridine hydrochloride salt] | 0.798 µM
5 | Cc1ccc(Cn2ncc3ncc(-c4cccc(C(F)(F)F)c4)cc32)cn1 [Example 165, 1-[(6-Methyl-3-pyridyl)methyl]-6-[3-(trifluoromethyl)phenyl]pyrazolo[4,3-b]pyridine] | 2.17 µM
6 | Cc1ncccc1Cn1ncc2ncc(-c3cccc(C(F)(F)F)c3)cc21 [Example 166, 1-[(2-Methyl-3-pyridyl)methyl]-6-[3-(trifluoromethyl)phenyl]pyrazolo[4,3-b]pyridine] | 0.87 µM
7 | Cc1cncc(Cn2ncc3ncc(-c4cccc(C(F)(F)F)c4)cc32)c1 [Example 167, 1-[(5-Methyl-3-pyridyl)methyl]-6-[3-(trifluoromethyl)phenyl]pyrazolo[4,3-b]pyridine] | 0.25 µM
8 | Cc1ccncc1Cn1ncc2ncc(-c3cccc(C(F)(F)F)c3)cc21 [Example 168, 1-[(4-Methyl-3-pyridyl)methyl]-6-[3-(trifluoromethyl)phenyl]pyrazolo[4,3-b]pyridine trifluoroacetate salt] | 0.161 µM
9 | Fc1ccc(Cn2ncc3ncc(-c4cccc(C(F)(F)F)c4)cc32)cn1 [Example 169, 1-[(6-Fluoro-3-pyridyl)methyl]-6-[3-(trifluoromethyl)phenyl]pyrazolo[4,3-b]pyridine] | 0.234 µM
10 | Fc1ncccc1Cn1ncc2ncc(-c3cccc(C(F)(F)F)c3)cc21 [Example 170, 1-[(2-Fluoro-3-pyridyl)methyl]-6-[3-(trifluoromethyl)phenyl]pyrazolo[4,3-b]pyridine] | 1.04 µM
11 | Fc1cncc(Cn2ncc3ncc(-c4cccc(C(F)(F)F)c4)cc32)c1 [Example 171, 1-[(5-Fluoro-3-pyridyl)methyl]-6-[3-(trifluoromethyl)phenyl]pyrazolo[4,3-b]pyridine] | 0.212 µM
12 | COc1ncccc1Cn1ncc2ncc(-c3cccc(C(F)(F)F)c3)cc21 [Example 172, 1-[(2-Methoxy-3-pyridyl)methyl]-6-[3-(trifluoromethyl)phenyl]pyrazolo[4,3-b]pyridine trifluoroacetate salt] | 7.78 µM
13 | COc1cncc(Cn2ncc3ncc(-c4cccc(C(F)(F)F)c4)cc32)c1 [Example 173, 1-[(5-Methoxy-3-pyridyl)methyl]-6-[3-(trifluoromethyl)phenyl]pyrazolo[4,3-b]pyridine] | 0.21 µM
14 | FC(F)(F)c1cccc(-c2cnc3cnn(Cc4ccc(C(F)(F)F)nc4)c3c2)c1 [Example 174, 6-[3-(Trifluoromethyl)phenyl]-1-[[6-(trifluoromethyl)-3-pyridyl]methyl]pyrazolo[4,3-b]pyridine] | 11.9 µM
15 | FC(F)(F)c1cncc(Cn2ncc3ncc(-c4cccc(C(F)(F)F)c4)cc32)c1 [Example 175, 6-[3-(Trifluoromethyl)phenyl]-1-[[5-(trifluoromethyl)-3-pyridyl]methyl]pyrazolo[4,3-b]pyridine] | 2.3 µM
16 | FC(F)(F)c1cccc(-c2cnc3cnn(Cc4cnccc4C(F)(F)F)c3c2)c1 [Example 176, 6-[3-(Trifluoromethyl)phenyl]-1-[[4-(trifluoromethyl)-3-pyridyl]methyl]pyrazolo[4,3-b]pyridine] | 1.3 µM
17 | Cc1cc(-c2cnc3cnn(Cc4cccnc4)c3c2)ccc1F [Example 177, 6-(4-Fluoro-3-methyl-phenyl)-1-(3-pyridylmethyl)pyrazolo[4,3-b]pyridine] | 0.023 µM
18 | Cc1cc(-c2cnc3c(F)nn(Cc4cccnc4)c3c2)ccc1F [Example 178, 3-Fluoro-6-(4-fluoro-3-methyl-phenyl)-1-(3-pyridylmethyl)pyrazolo[4,3-b]pyridine] | 0.026 µM
19 | Cc1cc(-c2cnc3cnn(Cc4cccnc4C)c3c2)ccc1F [Example 179, 6-(4-Fluoro-3-methyl-phenyl)-1-[(2-methyl-3-pyridyl)methyl]pyrazolo[4,3-b]pyridine] | 0.507 µM
20 | Cc1cncc(Cn2ncc3ncc(-c4ccc(F)c(C)c4)cc32)c1 [Example 180, 6-(4-Fluoro-3-methyl-phenyl)-1-[(5-methyl-3-pyridyl)methyl]pyrazolo[4,3-b]pyridine trifluoroacetate salt] | 0.062 µM
21 | Cc1cc(-c2cnc3cnn(Cc4cnccc4C)c3c2)ccc1F [Example 181, 6-(4-Fluoro-3-methyl-phenyl)-1-[(4-methyl-3-pyridyl)methyl]pyrazolo[4,3-b]pyridine trifluoroacetate salt] | 0.113 µM
22 | Cc1cc(-c2cnc3cnn(Cc4ccc(F)nc4)c3c2)ccc1F [Example 182, 6-(4-Fluoro-3-methyl-phenyl)-1-[(6-fluoro-3-pyridyl)methyl]pyrazolo[4,3-b]pyridine] | 0.064 µM
23 | Cc1cc(-c2cnc3cnn(Cc4cncc(F)c4)c3c2)ccc1F [Example 183, 6-(4-Fluoro-3-methyl-phenyl)-1-[(5-fluoro-3-pyridyl)methyl]pyrazolo[4,3-b]pyridine] | 0.021 µM
24 | Cc1ccncc1Cn1ncc2ncc(-c3cc(F)cc(F)c3)cc21 [Example 184, 6-(3,5-Difluorophenyl)-1-[(4-methyl-3-pyridyl)methyl]pyrazolo[4,3-b]pyridine trifluoroacetate salt] | 0.068 µM
25 | Fc1cncc(Cn2ncc3ncc(-c4cc(F)cc(F)c4)cc32)c1 [Example 185, 6-(3,5-Difluorophenyl)-1-[(5-fluoro-3-pyridyl)methyl]pyrazolo[4,3-b]pyridine] | 0.045 µM
26 | Fc1ccc(-c2cnc3cnn(Cc4ccccn4)c3c2)cc1F [Example 186, 6-(3,4-Difluorophenyl)-1-(2-pyridylmethyl)pyrazolo[4,3-b]pyridine trifluoroacetate salt] | 2.52 µM
27 | Fc1ccc(-c2cnc3cnn(Cc4cccnc4)c3c2)cc1F [Example 187, 6-(3,4-Difluorophenyl)-1-(3-pyridylmethyl)pyrazolo[4,3-b]pyridine trifluoroacetate salt] | 0.218 µM
28 | Cc1ncccc1Cn1ncc2ncc(-c3ccc(F)c(F)c3)cc21 [Example 188, 6-(3,4-Difluorophenyl)-1-[(2-methyl-3-pyridyl)methyl]pyrazolo[4,3-b]pyridine] | 3.62 µM
29 | Cc1cncc(Cn2ncc3ncc(-c4ccc(F)c(F)c4)cc32)c1 [Example 189, 6-(3,4-Difluorophenyl)-1-[(5-methyl-3-pyridyl)methyl]pyrazolo[4,3-b]pyridine] | 0.07 µM
30 | Cc1ccncc1Cn1ncc2ncc(-c3ccc(F)c(F)c3)cc21 [Example 190, 6-(3,4-Difluorophenyl)-1-[(4-methyl-3-pyridyl)methyl]pyrazolo[4,3-b]pyridine trifluoroacetate salt] | 0.158 µM
